# Results reported in patent US5675003A, “3-ammoniopropenyl cephalosporin compounds as antibacterial agents” (Korea Institute of Science and Technology, priority 1995, dated 1997).
# Experiments:
# [1] = tested on: Streptococcus pyogenes 308 A; assay: MIC, in vitro agar dilution method; format: cell-based; conditions: Streptococcus pyogenes, 308A
# Procedure: (§1) The MICs of the new cephalosporins of the present invention against Gram-positive and Gram-negative bacteria were determined by an in vitro agar dilution method. For comparisons, the MIC values of ceftazidime are also listed.
# (§2) In vitro antimicrobial activity of the cephalosporins (l) (MIC:
# S.p.1, Streptococcus pyogenes 308 A;
# [2] = tested on: Streptococcus pyogenes A 77; assay: MIC, in vitro agar dilution method; format: cell-based; conditions: Streptococcus pyogenes, A77
# Procedure: as §1, §2
# S.p.2, Streptococcus pyogenes A 77;
# Streptococcus faecium MD = assay: MIC, in vitro agar dilution method; format: cell-based; conditions: Enterococcus faecium
# Procedure: as §1, §2
# S.f., Streptococcus faecium MD;
# [3] = tested on: Staphlococcus aureus SG 511; assay: MIC, in vitro agar dilution method; format: cell-based
# Procedure: as §1, §2
# S.a.1, Staphlococcus aureus SG 511;
# [4] = tested on: Staphylococcus aureus 285; assay: MIC, in vitro agar dilution method; format: cell-based; conditions: Staphylococcus aureus, 285
# Procedure: as §1, §2
# E.c. TEM, S.a. 2, Staphylococcus aureus 285;
# [5] = tested on: Staphylococcus aureus 503; assay: MIC, in vitro agar dilution method; format: cell-based; conditions: Staphylococcus aureus, 503
# Procedure: as §1, §2
# S.a.3, Staphylococcus aureus 503;
# Escherichia coli O55 = assay: MIC, in vitro agar dilution method; format: cell-based; conditions: E.c.1, Escherichia coli O55
# Procedure: as §1, §2
# E.c.1, Escherichia coli O55;
# Escherichia coli DC0 = assay: MIC, in vitro agar dilution method; format: cell-based; conditions: E.c.2, Escherichia coli DC0
# Procedure: as §1, §2
# E.c.2, Escherichia coli DC0;
# Escherichia coli TEM = assay: MIC, in vitro agar dilution method; format: cell-based; conditions: E.c.3, Escherichia coli TEM
# Procedure: as §1, §2
# E.c.3, Escherichia coli TEM;
# Escherichia coli 1507 E = assay: MIC, in vitro agar dilution method; format: cell-based; conditions: E.c.4, Escherichia coli 1507 E
# Procedure: as §1, §2
# E.c.4, Escherichia coli 1507 E;
# E.c.5 = assay: MIC, in vitro agar dilution method; format: cell-based; conditions: Escherichia coli, E.c.5 (strain not defined)
# Procedure: as §1
# [6] = tested on: Pseudomonas aeruginosa 9027; assay: MIC, in vitro agar dilution method; format: cell-based; conditions: Pseudomonas aeruginosa, 9027
# Procedure: as §1, §2
# P.a.1, Pseudomonas aeruginosa 9027;
# [7] = tested on: Pseudomonas aeruginosa 1592 E; assay: MIC, in vitro agar dilution method; format: cell-based; conditions: Pseudomonas aeruginosa, 1592E
# Procedure: as §1, §2
# P.a.2, Pseudomonas aeruginosa 1592 E;
# [8] = tested on: Pseudomonas eruginosa 1771; assay: MIC, in vitro agar dilution method; format: cell-based; conditions: P.a.3, Pseudomonas eruginosa 1771
# Procedure: as §1, §2
# P.a.3, Pseudomonas eruginosa 1771;
# [9] = tested on: Pseudomonas aeruginosa 1771 M; assay: MIC, in vitro agar dilution method; format: cell-based; conditions: Pseudomonas aeruginosa, 1771M
# Procedure: as §1, §2
# P.a.4, Pseudomonas aeruginosa 1771 M;
# Salmonella typhimurium = assay: MIC, in vitro agar dilution method; format: cell-based; conditions: Salmonella enterica, TYPHIMURIUM
# Procedure: as §1, §2
# S.t., Salmonella typhimurium;
# [10] = tested on: Klebsiella oxytoca 1082 E; assay: MIC, in vitro agar dilution method; format: cell-based; conditions: Klebsiella oxytoca, 1082E
# Procedure: as §1, §2
# K.o., Klebsiella oxytoca 1082 E;
# [11] = tested on: Klebsiella aerogenes 1552 E; assay: MIC, in vitro agar dilution method; format: cell-based; conditions: Klebsiella aerogenes, 1552E
# Procedure: as §1, §2
# K.a., Klebsiella aerogenes 1552 E;
# [12] = tested on: Enterobacter cloacae P 99; assay: MIC, in vitro agar dilution method; format: cell-based
# Procedure: as §1, §2
# En.c.1, Enterobacter cloacae P 99;
# [13] = tested on: Enterobacter cloacae 1321 E; assay: MIC, in vitro agar dilution method; format: cell-based; conditions: Enterobacter cloacae, 1321E
# Procedure: as §1, §2
# En.c.2, Enterobacter cloacae 1321 E.
# anti-pseudomonal = conditions: in words, prior art; cited from earlier work
# staphylococci = conditions: in words, prior art; cited from earlier work
# Enterobacter cloacae P99 = conditions: in words, prior art; cited from earlier work
compound,measurement,setting,value
"CC(C)(O/N=C(\C(=O)N[C@@H]1C(=O)N2C(C(=O)[O-])=C(C[n+]3ccccc3)CS[C@H]12)c1csc(N)n1)C(=O)O [Ceftazidime, ceftazidime, reference compound]",MIC,[1],0.098 µg/mL
same,MIC,[2],0.049 µg/mL
same,MIC,Streptococcus faecium MD,100 µg/mL
same,MIC,[3],12.5 µg/mL
same,MIC,[4],12.5 µg/mL
same,MIC,[5],3.13 µg/mL
same,MIC,Escherichia coli O55,0.098 µg/mL
same,MIC,Escherichia coli DC0,0.098 µg/mL
same,MIC,Escherichia coli TEM,0.098 µg/mL
same,MIC,Escherichia coli 1507 E,0.2 µg/mL
same,MIC,E.c.5,0.2 µg/mL
same,MIC,[6],3.13 µg/mL
same,MIC,[7],0.78 µg/mL
same,MIC,[8],0.39 µg/mL
same,MIC,[9],0.098 µg/mL
same,MIC,Salmonella typhimurium,0.2 µg/mL
same,MIC,[10],0.39 µg/mL
same,MIC,[11],0.098 µg/mL
same,MIC,"[12]; Enterobacter cloacae, P99",100 µg/mL
same,activity against Enterobacter cloacae P99,[12]; in words,resistant to ceftazidime
same,MIC,[13],0.025 µg/mL
same,anti-pseudomonal activity,anti-pseudomonal,potent anti-pseudomonal activity
same,activity against staphylococci,staphylococci,less active against staphylococci
same,activity against Enterobacter cloacae P99,Enterobacter cloacae P99,less active against staphylococci and Enterobacter cloacae P99
"CO/N=C(\C(=O)N[C@@H]1C(=O)N2C(C(=O)[O-])=C(C[N+]3(C)CCCC3)CS[C@H]12)c1csc(N)n1 [Cefepime, cefepime]",anti-pseudomonal activity,anti-pseudomonal,high anti-pseudomonal activity
same,activity against staphylococci,staphylococci,improved anti-staphylococcaI activity
